Toxic doses and inconclusive results are not listed.
Tested on: L1210 leukemia ip in BDF1 mice, survival T/C
Test: NCI In Vivo Anticancer Drug Screen. Data for tumor model L1210 Leukemia (intraperitoneal) in B6D2F1 (BDF1) mice
Settings: endpoint: mean survival time, higher = longer survival
How it was run: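 Each compound was tested against a transplantable tumor grown in mice. The endpoint was survival, with treated animals benchmarked against vehicle controls as a simple ratio.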

[1] = dose: 100.0 mg/kg/injection, schedule: Q01DX009 (ip), vehicle: saline with Tween-80
[2] = dose: 200.0 mg/kg/injection, schedule: Q01DX009 (ip), vehicle: saline with Tween-80
[3] = dose: 400.0 mg/kg/injection, schedule: Q01DX009 (ip), vehicle: saline with Tween-80
[4] = dose: 100.0 mg/kg/injection, schedule: Q01DX009 (ip), vehicle: Klucel (hydroxypropylcellulose) (HPC)
[5] = dose: 100.0 mg/kg/injection, schedule: Q04DX002 (ip), vehicle: Klucel (hydroxypropylcellulose) (HPC)
[6] = dose: 200.0 mg/kg/injection, schedule: Q01DX009 (ip), vehicle: Klucel (hydroxypropylcellulose) (HPC)
[7] = dose: 200.0 mg/kg/injection, schedule: Q04DX002 (ip), vehicle: Klucel (hydroxypropylcellulose) (HPC)
[8] = dose: 400.0 mg/kg/injection, schedule: Q01DX009 (ip), vehicle: Klucel (hydroxypropylcellulose) (HPC)
[9] = dose: 100.0 mg/kg/injection, schedule: Q01DX001 (ip), vehicle: saline
[10] = dose: 200.0 mg/kg/injection, schedule: Q01DX001 (ip), vehicle: saline
[11] = dose: 400.0 mg/kg/injection, schedule: Q01DX001 (ip), vehicle: saline
[12] = dose: 100.0 mg/kg/injection, schedule: Q04DX003 (ip), vehicle: Klucel (hydroxypropylcellulose) (HPC)
[13] = dose: 200.0 mg/kg/injection, schedule: Q04DX003 (ip), vehicle: Klucel (hydroxypropylcellulose) (HPC)
[14] = dose: 400.0 mg/kg/injection, schedule: Q04DX003 (ip), vehicle: Klucel (hydroxypropylcellulose) (HPC)
[15] = dose: 100.0 mg/kg/injection, schedule: Q01DX001 (ip), vehicle: saline with Tween-80

Structure (SMILES): CN=C(NC)c1ccc(NC(=O)/C=C\c2ccc(C(=O)Nc3ccc(C(=NC)NC)cc3)cc2)cc1
- T/C (dose: 0.23 mg/kg/injection, schedule: Q01DX Z (ip), vehicle: saline): 90 % of control
- T/C (dose: 0.47 mg/kg/injection, schedule: Q01DX Z (ip), vehicle: saline): 114 % of control
- T/C (dose: 0.5 mg/kg/injection, schedule: Q01DX006 (iv), vehicle: saline): 105 % of control
- T/C (dose: 0.5 mg/kg/injection, schedule: Q01DX Z (ip), vehicle: saline): 104 % of control
- T/C (dose: 0.5 mg/kg/injection, schedule: Q01DX Z (sc), vehicle: saline): 96 % of control
- T/C (dose: 0.5 mg/kg/injection, schedule: Q02DX004 (im), vehicle: saline): 98 % of control
- T/C (dose: 0.94 mg/kg/injection, schedule: Q01DX Z (ip), vehicle: saline): 120 % of control
- T/C (dose: 1.0 mg/kg/injection, schedule: Q01DX006 (iv), vehicle: saline): 107 % of control
- T/C (dose: 1.0 mg/kg/injection, schedule: Q01DX Z (ip), vehicle: saline): 118 % of control
- T/C (dose: 1.0 mg/kg/injection, schedule: Q01DX Z (sc), vehicle: saline): 94 % of control
- T/C (dose: 1.0 mg/kg/injection, schedule: Q02DX004 (im), vehicle: saline): 105 % of control
- T/C (dose: 2.0 mg/kg/injection, schedule: Q01DX006 (iv), vehicle: saline): 100 % of control
- T/C (dose: 2.0 mg/kg/injection, schedule: Q01DX Z (sc), vehicle: saline): 105 % of control
- T/C (dose: 2.0 mg/kg/injection, schedule: Q02DX004 (im), vehicle: saline): 96 % of control
- T/C (dose: 3.75 mg/kg/injection, schedule: Q01DX Z (ip), vehicle: saline): 248 % of control
- T/C (dose: 4.0 mg/kg/injection, schedule: Q01DX006 (iv), vehicle: saline): 105 % of control
- T/C (dose: 4.0 mg/kg/injection, schedule: Q01DX Z (ip), vehicle: saline): 209 % of control
- T/C (dose: 4.0 mg/kg/injection, schedule: Q01DX Z (sc), vehicle: saline): 164 % of control
- T/C (dose: 4.0 mg/kg/injection, schedule: Q02DX004 (im), vehicle: saline): 107 % of control
- T/C (dose: 8.0 mg/kg/injection, schedule: Q01DX006 (iv), vehicle: saline): 116 % of control
- T/C (dose: 8.0 mg/kg/injection, schedule: Q01DX Z (ip), vehicle: saline): 121 % of control
- T/C (dose: 15.0 mg/kg/injection, schedule: Q01DX Z (ip), vehicle: saline): 86 % of control
- T/C (dose: 15.0 mg/kg/injection, schedule: Q01DX Z (oral), vehicle: other): 97 % of control
- T/C (dose: 16.0 mg/kg/injection, schedule: Q01DX004 (im), vehicle: saline): 123 % of control
- T/C (dose: 16.0 mg/kg/injection, schedule: Q01DX006 (iv), vehicle: saline): 107 % of control
- T/C (dose: 16.0 mg/kg/injection, schedule: Q01DX Z (ip), vehicle: saline): 107 % of control
- T/C (dose: 16.0 mg/kg/injection, schedule: Q01DX Z (sc), vehicle: saline): 120 % of control
- T/C (dose: 16.0 mg/kg/injection, schedule: Q02DX004 (im), vehicle: saline): 191 % of control
- T/C (dose: 30.0 mg/kg/injection, schedule: Q01DX Z (oral), vehicle: other): 95 % of control
- T/C (dose: 32.0 mg/kg/injection, schedule: Q01DX004 (im), vehicle: saline): 161 % of control
- T/C (dose: 60.0 mg/kg/injection, schedule: Q01DX Z (oral), vehicle: other): 104 % of control
- T/C (dose: 62.5 mg/kg/injection, schedule: Q## X009 (oral), vehicle: saline): 93 % of control
- T/C (dose: 125.0 mg/kg/injection, schedule: Q## X010 (oral), vehicle: saline): 112 % of control
- T/C (dose: 128.0 mg/kg/injection, schedule: Q01DX004 (im), vehicle: saline): 116 % of control
- T/C (dose: 250.0 mg/kg/injection, schedule: Q## X010 (oral), vehicle: saline): 111 % of control
- T/C (dose: 500.0 mg/kg/injection, schedule: Q## X009 (oral), vehicle: saline): 102 % of control

Structure (SMILES): O=C(COc1ccc(Cl)cc1)Nc1cccc([N+](=O)[O-])c1
- T/C [1]: 96 % of control
- T/C [2]: 92 % of control
- T/C [3]: 90 % of control

Structure (SMILES): N#Cc1c(O)ccc(O)c1C#N
- T/C [4]: 87 % of control
- T/C [5]: 90 % of control
- T/C [6]: 87 % of control
- T/C [7]: 93 % of control
- T/C [8]: 94 % of control
- T/C (dose: 400.0 mg/kg/injection, schedule: Q04DX002 (ip), vehicle: Klucel (hydroxypropylcellulose) (HPC)): 96 % of control

Structure (SMILES): NC(=O)c1c([N+](=O)[O-])ncn1C1OC(CO)C(O)C1O (stereo not drawn)
- T/C [9]: 98 % of control
- T/C [10]: 102 % of control
- T/C [11]: 96 % of control

Structure (SMILES): CSc1cc(C)c(OC(=O)Nc2ccccc2F)c(CO)c1
- T/C [1]: 97 % of control
- T/C [2]: 98 % of control
- T/C [3]: 114 % of control

Structure (SMILES): COc1ccc(CCN(C)C2CC3CCC2(C)C3(C)C)cc1OC (stereo not drawn)
- T/C [9]: 93 % of control
- T/C [10]: 96 % of control
- T/C [11]: 100 % of control

Structure (SMILES): CCCC(=O)OCC1CC2C=CC1C2 (stereo not drawn)
- T/C (dose: 222.0 mg/kg/injection, schedule: Q01DX Z (ip), vehicle: saline): 100 % of control
- T/C (dose: 333.0 mg/kg/injection, schedule: Q01DX Z (ip), vehicle: saline): 102 % of control
- T/C (dose: 500.0 mg/kg/injection, schedule: Q01DX Z (ip), vehicle: saline): 112 % of control

Structure (SMILES): N=C(N)SCc1ccc(Cl)c(Cl)c1
- T/C (dose: 50.0 mg/kg/injection, schedule: Q01DX003 (ip), vehicle: Klucel (hydroxypropylcellulose) (HPC)): 106 % of control
- T/C (dose: 100.0 mg/kg/injection, schedule: Q01DX003 (ip), vehicle: Klucel (hydroxypropylcellulose) (HPC)): 101 % of control
- T/C (dose: 100.0 mg/kg/injection, schedule: Q04DX003 (ip), vehicle: saline): 102 % of control
- T/C (dose: 200.0 mg/kg/injection, schedule: Q04DX003 (ip), vehicle: saline): 89 % of control

Structure (SMILES): O=c1[nH]c(Cc2ccccc2)c([N+](=O)[O-])c(=O)[nH]1
- T/C (dose: 50.0 mg/kg/injection, schedule: Q01DX001 (ip), vehicle: Klucel (hydroxypropylcellulose) (HPC)): 94 % of control
- T/C (dose: 100.0 mg/kg/injection, schedule: Q01DX001 (ip), vehicle: Klucel (hydroxypropylcellulose) (HPC)): 103 % of control
- T/C (dose: 200.0 mg/kg/injection, schedule: Q01DX001 (ip), vehicle: Klucel (hydroxypropylcellulose) (HPC)): 97 % of control

Structure (SMILES): C(=N\C(/N=C/c1ccccc1)c1ccccc1)/c1ccccc1
- T/C [4]: 96 % of control
- T/C [12]: 92 % of control
- T/C [6]: 94 % of control
- T/C [13]: 94 % of control
- T/C [8]: 92 % of control
- T/C [14]: 92 % of control

Structure (SMILES): NCCCNCCNCCCN
- T/C (dose: 100.0 mg/kg/injection, schedule: Q04DX002 (ip), vehicle: saline): 98 % of control
- T/C (dose: 200.0 mg/kg/injection, schedule: Q04DX002 (ip), vehicle: saline): 98 % of control

Structure (SMILES): Cc1ccc(NC(=S)NNC(=S)NNc2ccccc2)cc1
- T/C [5]: 86 % of control
- T/C [7]: 94 % of control

Structure (SMILES): CC(C)C(Cl)c1ccccc1 (stereo not drawn)
- T/C (dose: 50.0 mg/kg/injection, schedule: Q01DX009 (ip), vehicle: saline with Tween-80): 87 % of control
- T/C [1]: 91 % of control
- T/C [2]: 87 % of control

Structure (SMILES): CCOC(=O)Nc1cc(NCCCCc2ccccc2)c(N)c(N)n1
- T/C [15]: 101 % of control
- T/C (dose: 200.0 mg/kg/injection, schedule: Q01DX001 (ip), vehicle: saline with Tween-80): 102 % of control

Structure (SMILES): O=[As](O)(CC(O)COc1ccc(Cl)cc1Cl)c1ccc(Cl)cc1 (stereo not drawn)
- T/C (dose: 6.25 mg/kg/injection, schedule: Q01DX001 (ip), vehicle: saline with Tween-80): 105 % of control
- T/C (dose: 12.5 mg/kg/injection, schedule: Q01DX001 (ip), vehicle: saline with Tween-80): 98 % of control
- T/C (dose: 25.0 mg/kg/injection, schedule: Q01DX001 (ip), vehicle: saline with Tween-80): 98 % of control
- T/C [15]: 91 % of control

Structure (SMILES): Nc1ccc(F)cc1[N+](=O)[O-]
- T/C (dose: 50.0 mg/kg/injection, schedule: Q01DX009 (ip), vehicle: Klucel (hydroxypropylcellulose) (HPC)): 106 % of control
- T/C [4]: 93 % of control
- T/C [12]: 105 % of control
- T/C [6]: 95 % of control
- T/C [13]: 94 % of control
- T/C [8]: 90 % of control
- T/C [14]: 91 % of control

Structure (SMILES): Clc1ccc(-c2coc3cccc[n+]23)cc1
- T/C (dose: 75.0 mg/kg/injection, schedule: Q01DX001 (ip), vehicle: other): 100 % of control
- T/C (dose: 150.0 mg/kg/injection, schedule: Q01DX001 (ip), vehicle: other): 97 % of control
- T/C (dose: 300.0 mg/kg/injection, schedule: Q01DX001 (ip), vehicle: other): 97 % of control
